US8957049B2, “Inhibitors of fatty acid amide hydrolase” (Infinity Pharmaceuticals, Inc., priority 2008, dated 2015)

These molecules were tested against T1, human FAAH (Homo sapiens, UniProt O00519) (assay: Human FAAH biochemical inhibition assay (AMC arachidonoyl amide fluorescence)). Conditions: class given in each Example, read-out: Activity (Ki, inhibition of human FAAH).
T1 construct: host or cells: COS-7 cells, transient transfection (FuGENE 6); 13,000 g membrane fraction solubilised in 1% Triton X-100
T1 sequence (O00519 1-579): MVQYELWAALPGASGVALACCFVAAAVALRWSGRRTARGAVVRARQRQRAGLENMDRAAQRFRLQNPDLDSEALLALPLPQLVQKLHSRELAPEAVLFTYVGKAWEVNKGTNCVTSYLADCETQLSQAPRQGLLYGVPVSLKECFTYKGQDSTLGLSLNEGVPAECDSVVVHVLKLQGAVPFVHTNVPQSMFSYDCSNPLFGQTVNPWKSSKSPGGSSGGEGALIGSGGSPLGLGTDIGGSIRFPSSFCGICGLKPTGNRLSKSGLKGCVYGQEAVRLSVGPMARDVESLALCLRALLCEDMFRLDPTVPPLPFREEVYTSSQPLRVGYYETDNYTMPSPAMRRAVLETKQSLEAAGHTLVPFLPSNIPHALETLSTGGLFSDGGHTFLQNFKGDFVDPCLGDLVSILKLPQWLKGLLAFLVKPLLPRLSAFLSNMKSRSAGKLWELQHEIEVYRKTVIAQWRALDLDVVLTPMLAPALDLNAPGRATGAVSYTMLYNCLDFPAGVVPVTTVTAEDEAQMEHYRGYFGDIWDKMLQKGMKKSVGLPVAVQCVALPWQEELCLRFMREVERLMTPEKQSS
Method in brief: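 Human FAAH from solubilized membranes of transiently transfected COS-7 cells, 0.1 mg/mL in 50 mM Hepes pH 7.5, 1 mM EDTA, 0.2% Triton X-100, preincubated 30 min at room temperature with 3-fold serially diluted inhibitor. Hydrolysis of AMC arachidonoyl amide read by fluorescence (ex 355/em 460 nm). Data fitted to single-site competitive inhibition with Km fixed at 9 μM.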

`CCCCCc1nnc(-c2ccccc2B(O)O)o1` [Compound 281] was tested. Which Ki did it give?
Its Ki is greater than 1000 nM.

With `CN(C)c1nnc(-c2ccccc2B(O)O)o1` [Compound 282] as the molecule, how does the Ki read?
The Ki was greater than 1000 nM.

How did the Ki turn out when `CC(C)c1nnc(-c2ccccc2B(O)O)o1` [Compound 283] was run?
The Ki was greater than 1000 nM.

How did the Ki turn out when `CC(C)Cc1nnc(-c2ccccc2B(O)O)o1` [Compound 284] was run?
The Ki was greater than 1000 nM.

With `OB(O)c1ccccc1-c1nnc(CCC(F)(F)F)o1` [Compound 285] as the molecule, how does the Ki read?
The Ki was greater than 1000 nM.

With `CCOc1nnc(-c2ccccc2B(O)O)o1` [Compound 286] as the molecule, how does the Ki read?
The Ki was greater than 1000 nM.

`O=C(/C=C/c1cc(OCCc2ccccc2)ccc1B(O)O)NCc1cccnc1` [Compound 287] was tested. Which Ki did it give?
Its Ki is greater than 1000 nM.

Which Ki does the source give for `O=C(/C=C/c1cc(OCCc2ccccc2)ccc1B(O)O)NCc1ccco1` [Compound 288] here?
The Ki was greater than 1000 nM.

`CC(C)c1cccc(-c2ccc(B(O)O)c(F)c2)c1` [Compound 289] was tested. Which Ki did it give?
The Ki was no more than 10 nM.

With `OB(O)c1ccc2oc(CCc3ccccc3)cc2c1` [Compound 291] as the molecule, how does the Ki read?
Its Ki is no more than 10 nM.

How did the Ki turn out when `OB(O)c1ccc2cc(CCc3ccccc3)oc2c1` [Compound 293] was run?
Its Ki is no more than 10 nM.

How did the Ki turn out when `CCCc1nnc(-c2cc(Oc3cccnc3)ccc2B(O)O)o1` [Compound 296] was run?
Its Ki is 10 to 100 nM.

With `OB(O)c1ccc(Oc2cncc(F)c2)cc1` [Compound 297] as the molecule, how does the Ki read?
Its Ki is no more than 10 nM.

How did the Ki turn out when `OB(O)c1ccc(Oc2ccc(F)nc2)cc1F` [Compound 298] was run?
The Ki was no more than 10 nM.

For `CC(C)(C)OC(=O)N1CCC(Cc2nc3ccc(B(O)O)cc3o2)CC1` [Compound 299], which Ki is on record?
The Ki was no more than 10 nM.

How did the Ki turn out when `CC(C)c1ccc(CN2CCC(Cc3nc4ccc(B(O)O)cc4o3)CC2)cc1` [Compound 301] was run?
Its Ki is 10 to 100 nM.

Which Ki does the source give for `OB(O)c1ccc2nc(CC3CCN(Cc4ccccc4)CC3)oc2c1` [Compound 302] here?
The Ki was 10 to 100 nM.

For `CCCN1CCC(Cc2nc3ccc(B(O)O)cc3o2)CC1` [Compound 303], which Ki is on record?
The Ki was 100 to 1000 nM.

With `CC(C)CN1CCC(Cc2nc3ccc(B(O)O)cc3o2)CC1` [Compound 304] as the molecule, how does the Ki read?
The Ki was greater than 1000 nM.

`O=S(=O)(c1ccccc1)N1CCC(Cc2nc3ccc(B(O)O)cc3o2)CC1` [Compound 305] was tested. Which Ki did it give?
Its Ki is 10 to 100 nM.

With `O=C(CCc1ccccc1)N1CCC(Cc2nc3ccc(B(O)O)cc3o2)CC1` [Compound 306] as the molecule, how does the Ki read?
Its Ki is no more than 10 nM.

`CCCCCN1C(=O)c2ccc(B(O)O)cc2C1=O` [Compound 307] was tested. Which Ki did it give?
The Ki was no more than 10 nM.

Which Ki does the source give for `O=C1c2ccc(B(O)O)cc2C(=O)N1Cc1ccccc1` [Compound 308] here?
The Ki was no more than 10 nM.

With `O=C1c2ccc(B(O)O)cc2C(=O)N1CCc1ccccc1` [Compound 309] as the molecule, how does the Ki read?
Its Ki is no more than 10 nM.

Which Ki does the source give for `CN(CCc1ccc(B(O)O)c(F)c1)C(=O)OC(C)(C)C` [Compound 311] here?
Its Ki is no more than 10 nM.

Which Ki does the source give for `CN(CCc1ccc(B(O)O)c(F)c1)S(=O)(=O)c1ccccc1` [Compound 312] here?
The Ki was no more than 10 nM.

Which Ki does the source give for `OB(O)c1ccc2cn(CCc3ccccc3)nc2c1` [Compound 314] here?
Its Ki is no more than 10 nM.

Which Ki does the source give for `OB(O)c1ccc2nn(CCc3ccccc3)cc2c1` [Compound 315] here?
Its Ki is no more than 10 nM.

Which Ki does the source give for `OB(O)c1ccc2c(cnn2Cc2ccccc2)c1` [Compound 316] here?
Its Ki is no more than 10 nM.

Which Ki does the source give for `OB(O)c1ccc2nc(-c3ccccc3)c(Br)n2c1` [Compound 317] here?
Its Ki is no more than 10 nM.

`CC(C)(C)OC(=O)N1CCN(c2ccc(B(O)O)cc2)CC1` [Compound 318] was tested. Which Ki did it give?
The Ki was 10 to 100 nM.

How did the Ki turn out when `O=C(c1ccccc1)c1ccc2cc(B(O)O)ccc2n1` [Compound 319] was run?
Its Ki is no more than 10 nM.

Which Ki does the source give for `O=C(CCB(O)O)NCCc1ccccc1` [Compound 321] here?
The Ki was 100 to 1000 nM.

`O=C(CCB(O)O)N1CCN(C(=O)OCc2ccccc2)CC1` [Compound 322] was tested. Which Ki did it give?
Its Ki is 10 to 100 nM.

For `CC(C)(C)OC(=O)N1CCN(C(=O)CCB(O)O)CC1` [Compound 323], which Ki is on record?
Its Ki is 100 to 1000 nM.

For `O=C(CCc1ccc(B(O)O)cc1)NCc1ccccc1` [Compound 324], which Ki is on record?
Its Ki is 100 to 1000 nM.

`OB(O)c1ccc(COc2ccc(B(O)O)cc2)cc1` [Compound 325] was tested. Which Ki did it give?
The Ki was 100 to 1000 nM.

Which Ki does the source give for `OB(O)c1ccc(COc2cccc(B(O)O)c2)cc1` [Compound 326] here?
Its Ki is no more than 10 nM.

With `O=C(CCCC1CCN(Cc2ccc(B(O)O)cc2)CC1)c1ncco1` [Compound 329] as the molecule, how does the Ki read?
Its Ki is 100 to 1000 nM.

For `OB(O)c1ccc(-c2cn(Cc3ccccc3)nn2)cc1` [Example 117], which Ki is on record?
Its Ki is no more than 10 nM.

Which Ki does the source give for `OB(O)c1ccc(Cn2cc(-c3ccccc3)nn2)cc1` [Example 122] here?
Its Ki is 10 to 100 nM.
